In publication PMC8317200 (Journal of medicinal chemistry, 2020):
One block for each molecule: values may come before it. Residues, ends and D or L forms follow the SMILES beside them. *: point of attachment. Adamantane1carbonyl = O=C(C12CC3CC(CC(C3)C1)C2)*; NH(1-Adamantyl) = C1C2CC3CC1CC(N*)(C2)C3; Fmoc = O=C(OCC1c2ccccc2-c2ccccc21)*; Benzoyl(4-F) = O=C(c1ccc(F)cc1)*; Pyrrolidide = C1CCN(*)C1; Cbz = O=C(OCc1ccccc1)*; OcHex = C1CCC(O*)CC1; Bz = O=C(c1ccccc1)*; OtBu = CC(C)(C)O*; OAll = C=CCO*; X1 = C#CCO*

Legend:
FGF14:Nav1.6 complex = target: T1, FGF14:Nav1.6 complex (Homo sapiens, UniProt Q92915); assay: Split-luciferase complementation assay; type: cell-based; conditions: for Inhibitory activity against FGF14:Nav1.6 complex assembly (in words): 50 μM screening; for activity at 50 µM: HEK293, 1 h, read-out: RLVs (%)
T1 sequence (Q92915 1-252 isoform Q92915-2): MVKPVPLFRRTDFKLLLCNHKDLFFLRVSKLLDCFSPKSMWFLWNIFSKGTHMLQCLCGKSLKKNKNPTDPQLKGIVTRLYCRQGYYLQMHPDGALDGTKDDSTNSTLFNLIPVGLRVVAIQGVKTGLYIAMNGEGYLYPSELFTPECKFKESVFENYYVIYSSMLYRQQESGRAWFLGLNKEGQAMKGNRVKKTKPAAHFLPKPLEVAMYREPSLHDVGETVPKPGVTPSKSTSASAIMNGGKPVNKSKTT

FGF14 = target: T2, FGF14 (Homo sapiens, UniProt Q92915); assay: Surface plasmon resonance; type: binding; conditions: for koff: read-out: koff FGF14; for kon: read-out: kon FGF14
T2 sequence (Q92915 64-252 isoform Q92915-2): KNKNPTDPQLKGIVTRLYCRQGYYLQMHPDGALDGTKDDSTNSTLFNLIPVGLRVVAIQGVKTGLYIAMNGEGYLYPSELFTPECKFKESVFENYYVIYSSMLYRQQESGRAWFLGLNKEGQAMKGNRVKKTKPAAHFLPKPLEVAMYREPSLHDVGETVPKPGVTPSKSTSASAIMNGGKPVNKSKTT

CLuc-FGF14-1b (human) = target: T3, CLuc-FGF14-1b (human) (UniProt Q92915); assay: split reporter
T3 sequence: T1 sequence (Q92915 1-252 isoform Q92915-2)

Molecule: CC(C)C[C@H](NC(=O)[C@@H]1CCCN1C(=O)c1ccccc1)C(=O)N[C@@H](CCC(=O)OC(C)(C)C)C(=O)N[C@H](C(N)=O)C(C)C [Compound 13a, tert-Butyl (S)-5-(((S)-1-amino-3-methyl-1-oxobutan-2-yl)amino)-4-((S)-2-((S)-1-benzoylpyrrolidine-2-carboxamido)-4-methylpentanamido)-5-oxopentanoate] (Bz-PLE(OtBu)V-NH2)
- Inhibitory activity against FGF14:Nav1.6 complex assembly (in words) (FGF14:Nav1.6 complex): did not show any inhibitory activity

Molecule: CC(C)C[C@H](NC(=O)[C@@H]1CCCN1C(=O)c1ccc(F)cc1)C(=O)N[C@@H](CCC(=O)OC(C)(C)C)C(=O)N[C@H](C(N)=O)C(C)C [Compound 13f, tert-Butyl (S)-5-(((S)-1-amino-3-methyl-1-oxobutan-2-yl)amino)-4-((S)-2-((S)-1-(4-fluorobenzoyl)pyrrolidine-2-carboxamido)-4-methylpentanamido)-5-oxopentanoate] ({Benzoyl(4-F)}-PLE(OtBu)V-NH2)
- Inhibitory activity against FGF14:Nav1.6 complex assembly (in words) (FGF14:Nav1.6 complex): did not show any inhibitory activity
- activity at 50 µM (FGF14:Nav1.6 complex): 123 ± 3%

Molecule: CC(C)C[C@H](NC(=O)[C@@H]1CCCN1C(=O)OCc1ccccc1)C(=O)N[C@@H](CCC(=O)OC(C)(C)C)C(=O)N[C@H](C(=O)N1CCCC1)C(C)C [Compound 19e, Benzyl (S)-2-(((S)-1-(((S)-5-(tert-butoxy)-1-(((S)-3-methyl-1-oxo-1-(pyrrolidin-1-yl)butan-2-yl)amino)-1,5-dioxopentan-2-yl)amino)-4-methyl-1-oxopentan-2-yl)carbamoyl)pyrrolidine-1-carboxylate] (Cbz-PLE(OtBu)V-Pyrrolidide)
- koff (FGF14): 0.000991 s⁻¹
- kon (FGF14): 461 M⁻¹ s⁻¹

Molecule: CC(C)C[C@H](NC(=O)[C@@H]1CCCN1C(=O)OCc1ccccc1)C(=O)N[C@@H](CCC(=O)OC(C)(C)C)C(=O)N[C@H](C(=O)NC12CC3CC(CC(C3)C1)C2)C(C)C [Compound 19h, Benzyl (S)-2-(((S)-1-(((S)-1-(((S)-1-(((3R,5R,7R)-adamantan-1-yl)amino)-3-methyl-1-oxobutan-2-yl)amino)-5-(tert-butoxy)-1,5-dioxopentan-2-yl)amino)-4-methyl-1-oxopentan-2-yl)carbamoyl)pyrrolidine-1-carboxylate] (Cbz-PLE(OtBu)V-{NH(1-Adamantyl)})
- Inhibitory activity against FGF14:Nav1.6 complex assembly (in words) (FGF14:Nav1.6 complex): minimal inhibitory activity

Molecule: C=CCOC(=O)[C@@H](NC(=O)[C@H](CCC(=O)OC(C)(C)C)NC(=O)[C@H](CC(C)C)NC(=O)[C@@H]1CCCN1C(=O)OCc1ccccc1)C(C)C [Compound 19k, Benzyl (S)-2-(((S)-1-(((S)-1-(((S)-1-(allyloxy)-3-methyl-1-oxobutan-2-yl)amino)-5-(tert-butoxy)-1,5-dioxopentan-2-yl)amino)-4-methyl-1-oxopentan-2-yl)carbamoyl)pyrrolidine-1-carboxylate] (Cbz-PLE(OtBu)V-OAll)
- Binding by PTS and SPR (in words) (FGF14; PTS and SPR): negligible binding

Molecule: COC(=O)[C@@H](NC(=O)[C@H](CCC(=O)OC(C)(C)C)NC(=O)[C@H](CC(C)C)NC(=O)[C@@H]1CCCN1C(=O)OCC1c2ccccc2-c2ccccc21)C(C)C [Compound 21b, (9H-Fluoren-9-yl)methyl (S)-2-(((S)-1-(((S)-5-(tert-butoxy)-1-(((S)-1-methoxy-3-methyl-1-oxobutan-2-yl)amino)-1,5-dioxopentan-2-yl)amino)-4-methyl-1-oxopentan-2-yl)carbamoyl)pyrrolidine-1-carboxylate] (Fmoc-PLE(OtBu)V-OMe)
- Inhibitory activity against FGF14:Nav1.6 complex assembly (in words) (FGF14:Nav1.6 complex): markedly reduced inhibitory activity

Molecule: COC(=O)[C@@H](NC(=O)[C@H](CCC(=O)OC(C)(C)C)NC(=O)[C@H](CC(C)C)NC(=O)[C@@H]1CCCN1C(C)=O)C(C)C [Compound 21c, tert-Butyl (S)-4-((S)-2-((S)-1-acetylpyrrolidine-2-carboxamido)-4-methylpentanamido)-5-(((S)-1-methoxy-3-methyl-1-oxobutan-2-yl)amino)-5-oxopentanoate] (Ac-PLE(OtBu)V-OMe)
- Inhibitory activity against FGF14:Nav1.6 complex assembly (in words) (FGF14:Nav1.6 complex): markedly reduced inhibitory activity

Molecule: C#CCOC(=O)[C@@H](NC(=O)[C@H](CCC(=O)OC(C)(C)C)NC(=O)[C@H](CC(C)C)NC(=O)[C@@H]1CCCN1C(=O)C12CC3CC(CC(C3)C1)C2)C(C)C [Compound 23b, tert-Butyl (4S)-4-((2S)-2-((2S)-1-((1R,3R)-adamantane-1-carbonyl)pyrrolidine-2-carboxamido)-4-methylpentanamido)-5-(((S)-3-methyl-1-oxo-1-(prop-2-yn-1-yloxy)butan-2-yl)amino)-5-oxopentanoate] (Adamantane1carbonyl-PLE(OtBu)V-X1)
- kon (FGF14): 25800 M⁻¹ s⁻¹

Molecule: CC(C)C[C@H](NC(=O)[C@@H]1CCCN1C(=O)C12CC3CC(CC(C3)C1)C2)C(=O)N[C@@H](CCC(=O)OC(C)(C)C)C(=O)N[C@H](C(=O)OC(C)(C)C)C(C)C [Compound 23d, tert-Butyl (4S)-4-((2S)-2-((2S)-1-((1R,3R)-adamantane-1-carbonyl)pyrrolidine-2-carboxamido)-4-methylpentanamido)-5-(((S)-1-(tert-butoxy)-3-methyl-1-oxobutan-2-yl)amino)-5-oxopentanoate] (Adamantane1carbonyl-PLE(OtBu)V-OtBu)
- koff (FGF14): 0.0058 s⁻¹
- kon (FGF14): 1620 M⁻¹ s⁻¹

Molecule: CC(C)C[C@H](NC(=O)[C@@H]1CCCN1C(=O)C12CC3CC(CC(C3)C1)C2)C(=O)N[C@@H](CCC(=O)OC(C)(C)C)C(=O)N[C@H](C(=O)OC1CCCCC1)C(C)C [Compound 23e, tert-Butyl (4S)-4-((2S)-2-((2S)-1-((1R,3R)-adamantane-1-carbonyl)pyrrolidine-2-carboxamido)-4-methylpentanamido)-5-(((S)-1-(cyclohexyloxy)-3-methyl-1-oxobutan-2-yl)amino)-5-oxopentanoate] (Adamantane1carbonyl-PLE(OtBu)V-OcHex)
- koff (FGF14): 0.0139 s⁻¹
- kon (FGF14): 7350 M⁻¹ s⁻¹

Other lines, results leading:

- activity at 50 µM (FGF14:Nav1.6 complex): > 100%
Molecule: COC(=O)CC[C@H](NC(=O)[C@H](CC(C)C)NC(=O)[C@@H]1CCCN1C(=O)OCc1ccccc1)C(=O)OC(C)(C)C [Compound 30, 1-(tert-Butyl) 5-methyl ((benzyloxy)carbonyl)-L-prolyl-L-leucyl-L-glutamate] (Cbz-Pro-Leu-Glu(OMe)-OtBu)

- activity at 50 µM (FGF14:Nav1.6 complex): > 100%
Molecule: CC(C)C[C@H](NC(=O)[C@@H]1CCCN1C(=O)OCc1ccccc1)C(=O)N[C@H](C(N)=O)C(C)C [Compound 31, Benzyl (S)-2-(((S)-1-(((S)-1-amino-3-methyl-1-oxobutan-2-yl)amino)-4-methyl-1-oxopentan-2-yl)carbamoyl)pyrrolidine-1-carboxylate] (Cbz-Pro-Leu-Val-NH2)

- activity at 50 µM (FGF14:Nav1.6 complex): > 100%
Molecule: COC(=O)[C@@H](NC(=O)[C@H](CC(C)C)NC(=O)[C@@H]1CCCN1C(=O)OCc1ccccc1)C(C)C [Compound 32, Benzyl (S)-2-(((S)-1-(((S)-1-methoxy-3-methyl-1-oxobutan-2-yl)amino)-4-methyl-1-oxopentan-2-yl)carbamoyl)pyrrolidine-1-carboxylate] (Cbz-Pro-Leu-Val-OMe)

- IC50 (CLuc-FGF14-1b (human)): 33.9 µM
- efficacy (percent inhibition at the bottom plateau) (CLuc-FGF14-1b (human)): 92.1%
B1: compound 23d (peptide)
peptide: Adamantane1carbonyl-PLE(OtBu)V-OtBu
SMILES: CC(C)C[C@H](NC(=O)[C@@H]1CCCN1C(=O)C12CC3CC(CC(C3)C1)C2)C(=O)N[C@@H](CCC(=O)OC(C)(C)C)C(=O)N[C@H](C(=O)OC(C)(C)C)C(C)C

- IC50 (CLuc-FGF14-1b (human)): 35.3 µM
- efficacy (percent inhibition at the bottom plateau) (CLuc-FGF14-1b (human)): 69.9%
Molecule: Adamantane1carbonyl-PLE(OtBu)V-{O‑cyclohexyl} [compound 23e]

- IC50 (CLuc-FGF14-1b (human)): 11.5 µM
- efficacy (percent inhibition at the bottom plateau) (CLuc-FGF14-1b (human)): 95.5%
Molecule: Adamantane1carbonyl-PLE(OtBu)V-{O‑allyl} [compound 23a]

- IC50 (CLuc-FGF14-1b (human)): 22.5 µM
- efficacy (percent inhibition at the bottom plateau) (CLuc-FGF14-1b (human)): 83.3%
Molecule: Adamantane1carbonyl-PLE(OtBu)V-{O‑propyl} [compound 23g]

- IC50 (CLuc-FGF14-1b (human)): 20.4 µM
- efficacy (percent inhibition at the bottom plateau) (CLuc-FGF14-1b (human)): 96.1%
B2: compound 21a (peptide)
peptide: Adamantane1carbonyl-PLE(OtBu)V-OMe
SMILES: COC(=O)[C@@H](NC(=O)[C@H](CCC(=O)OC(C)(C)C)NC(=O)[C@H](CC(C)C)NC(=O)[C@@H]1CCCN1C(=O)C12CC3CC(CC(C3)C1)C2)C(C)C

- IC50 (CLuc-FGF14-1b (human)): 13.3 µM
- efficacy (percent inhibition at the bottom plateau) (CLuc-FGF14-1b (human)): 82.3%
B3: compound 23f (peptide)
peptide: Adamantane1carbonyl-PLE(OtBu)V-OEt
SMILES: CCOC(=O)[C@@H](NC(=O)[C@H](CCC(=O)OC(C)(C)C)NC(=O)[C@H](CC(C)C)NC(=O)[C@@H]1CCCN1C(=O)C12CC3CC(CC(C3)C1)C2)C(C)C

- IC50 (CLuc-FGF14-1b (human)): 13.8 µM
- efficacy (percent inhibition at the bottom plateau) (CLuc-FGF14-1b (human)): 96.6%
Molecule: Adamantane1carbonyl-PLE(OtBu)V-{O‑propargyl} [compound 23b]
